Results published in ChEMBL document CHEMBL4382216, “Asymmetric synthesis and biological evaluation of imidazole- and oxazole-containing synthetic lipoxin A4 mimetics (sLXms)” (Eur J Med Chem, 2019).

Key:
J774.1 [1] = test: Anti-inflammatory activity in mouse J774.1 cells assessed as reduction in LPS-stimulated TNFalpha level at 10 nM preincubated for 1 hr followed by LPS stimulation for 24 hrs by ELISA relative to control; format: functional; set-up: scale not given: the % may be the effect or the level left
THP-1 = test: Cytotoxicity against human THP1 cells harboring NFkB-Luc assessed as LDH release at 10'7 M after 24 hrs by spectrophotometric method relative to control; format: cell-based; conditions: thp-1, 24 h
Mus musculus [2] = test: (§1) Anti-inflammatory activity in zymosan-induced C57BL/6J mouse peritonitis model assessed as reduction in total cell count in peritoneal cavity at 125 ng, ip pretreated for 30 mins followed by zymosan treatment and redosing of test compound at 1 hr post zymosan addition and measured at 24 hrs post zymosan addition by flow cytometry relative to basal level (reference value: 14); format: functional
Mus musculus [3] = test: as §1, with “as” for “as reduction in”, “cytometry” for “cytometry relative to basal level”, “100%)” for “14)”; format: functional
Mus musculus [4] = test: as §1, with “PMN leukocytes level” for “reduction in total cell count”, “cytometry” for “cytometry relative to basal level”, “100%)” for “14)”; format: functional
J774.1 [5] = test: Anti-inflammatory activity in mouse J774.1 cells assessed as reduction in LPS-stimulated TNFalpha level at 100 nM preincubated for 1 hr followed by LPS stimulation for 24 hrs by ELISA relative to control; format: functional; set-up: scale not given: the % may be the effect or the level left

SMILES | Activity (J774.1 [1]) [%] | fold change (FC) (THP-1) | fold change (FC) (Mus musculus [2]) | Emax (Mus musculus [3]) [%] | Emax (Mus musculus [4]) [%] | Activity (J774.1 [5]) [%]
CCCCC[C@@H](O)c1nc(-c2ccccc2)n(-c2ccccc2)c1/C=C/[C@@H](O)[C@@H](O)CCCC(=O)OC | 30 | 1.1 | – | – | – | –
CCCCC[C@H](O)/C=C/C=C\C=C\C=C\[C@@H](O)[C@@H](O)CCCC(=O)O [LIPOXIN A4] | – | – | 5 | 35.3 | 35.9 | –
CCCCC[C@H](O)c1nc(-c2ccccc2)n(-c2ccccc2)c1/C=C/[C@@H](O)[C@@H](O)CCCC(=O)OC | – | 1.4 | – | – | – | 41
